In the NIST ThermoML archive (doi:10.1016/j.tca.2011.06.003):
± gives the expanded uncertainty stated by the source.

Conditions: 298.15 K, 101.33 kPa, Liquid; for viscosity: Capillary tube (Ostwald / Ubbelohde) method; for speed of sound: Sing-around technique in a fixed-path interferometer; for mass density: Vibrating tube method

| SMILES | viscosity [mPa·s] | speed of sound [m/s] | mass density [kg/m3] |
| --- | --- | --- | --- |
| NCCNCCN [di(2-aminoethyl)amine] | 5.627 ± 0.033 | 1670.5 ± 1 | 945.548 ± 0.099 |
| CCCCO [butan-1-ol] | 2.565 ± 0.016 | 1241.1 ± 0.8 | 805.953 ± 0.14 |
| CC(C)O [propan-2-ol] | 2.063 ± 0.013 | 1140.4 ± 0.8 | 781.482 ± 0.15 |
| CC(C)CO [2-methyl-1-propanol] | 3.307 ± 0.02 | 1188.8 ± 0.8 | 798.104 ± 0.14 |
